Source: patent EP1174421A1, “3-AMIDINOBENZENESULFONAMIDE DERIVATIVES, MEDICINAL COMPOSITIONS CONTAINING THE SAME AND INT[…] THE PRODUCTION THEREOF” (Kissei Pharmaceutical Co., Ltd., priority 1999, dated 2000)
Counter-ions that a name gives are not always drawn. Like-named read-outs stand apart in the source and are kept apart here.

Columns and labels:
[1] = molecular target: T1, human activated blood coagulation factor X (Homo sapiens, UniProt P00742); experiment: Measurement of inhibitory activity for activated blood coagulation factor X (S-2222 chromogenic substrate); type: biochemical
T1 construct: purchased Calbiochem Corporation
Method: (§1) Five µL of dimethylsulfoxide solution of test compound, 375 µL of tris-hydrochloric acid buffer (pH 8.4) and 100 µL of 1 mM S-2222 (Daiichi Pure Chemicals) aqueous solution were mixed. Then 20 µL of 0.6 U/mL human activated blood coagulation factor X (Calbiochem Corporation) in gelatin-glycine buffer was added and the mixture was incubated for 10 minutes at 37 °C. The reaction was terminated with the addition of 100 µL of 60 % acetic acid and absorbance (405 nm) was measured.
The group without test compound was defined as control and the group without human activated blood coagulation factor X was defined as blank.

[2] = molecular target: T2, human thrombin (Homo sapiens, UniProt P00734); experiment: Measurement of inhibitory activity for thrombin (S-2238 chromogenic substrate); type: biochemical
T2 construct: human thrombin (Sigma Chemical Company); purchased Sigma Chemical Company
Method: as §1, with “S-2238” for “S-2222”, “2.0” for “0.6”, “thrombin (Sigma Chemical Company)” for “activated blood coagulation factor X (Calbiochem Corporation)”
The group without test compound was defined as control and the group without human thrombin was defined as blank. […]

[3] = tested on: normal human plasma; experiment: Measurement of anticoagulation effects (plasma prothrombin time); type: biochemical; settings: CT2: concentration that prolonged the clotting time (prothrombin time) of control by 2 times
Method: Two µL of dimethylsulfoxide solution of test compound which was put in the process tube was incubated at 37 °C, and 50 µL of normal human plasma (George King Bio-Medical Inc.) was mixed. One minute later, 100 µL of plasma prothrombin time reagent (Neoplastin Plus® , Boehringer Mannheim) was added into the mixture. Prothrombin time was measured with ST4 (Boehringer Mannheim).
The group without test compound was defined as control. The concentration of test compound that prolonged the clotting time of control by 2 times (CT2) was obtained and this value was used as the index of anticoagulation activity.

[4] = tested on: Male Wistar rats; experiment: Acute toxicity test; type: in vivo; settings: 30 mg/kg, through tail vein (intravenous), groups of 5 rats, survival judged for 24 hours
Method: Male Wistar rats aged 7 weeks (SLC) were divided into several groups consisting of 5 rats. Test compound was dissolved at the concentration that became the administration volume of
2.5 mL/kg. The solution was administered through tail vein at an infusion rate of 1 mL/minute. Observations were performed at constant intervals, and survival rate was judged for 24 hours.

T1 sequence (P00742 235-488 limits assumed): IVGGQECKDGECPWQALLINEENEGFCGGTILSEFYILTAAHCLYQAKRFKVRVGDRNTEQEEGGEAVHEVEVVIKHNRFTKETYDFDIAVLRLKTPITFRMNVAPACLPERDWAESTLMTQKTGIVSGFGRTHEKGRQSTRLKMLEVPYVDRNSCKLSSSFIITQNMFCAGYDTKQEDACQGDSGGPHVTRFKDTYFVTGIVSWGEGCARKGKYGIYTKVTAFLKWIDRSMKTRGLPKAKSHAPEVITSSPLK
T1 sequence (P00742 41-179 partner limits assumed): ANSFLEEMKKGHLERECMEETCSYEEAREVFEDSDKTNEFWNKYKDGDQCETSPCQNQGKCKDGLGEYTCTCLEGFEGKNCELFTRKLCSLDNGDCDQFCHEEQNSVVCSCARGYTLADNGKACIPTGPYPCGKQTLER

IC50 ([1]; IC50, pH 8.4, 10 minutes at 37 °C, absorbance 405 nm, read-out: Inhibitory activity for activated blood coagulation factor X)	IC50 ([2]; IC50, pH 8.4, 10 minutes at 37 °C, absorbance 405 nm, read-out: Inhibitory activity for thrombin)	Compound	IC50 [1]	Anticoagulation effect [3]	IC50 [2]	Death cases [4]	Death cases ([4]; listed as 5-amidino-2-hydroxy-N-[2-[4-[1-(1-iminoethyl)piperidin-4-yl]phenyl]ethyl]benzene)
64 nM	101000 nM	CC(C)c1ccc(CCNS(=O)(=O)c2cc(C(=N)N)ccc2O)cc1 [Compound 2, 5-Amidino-N-[2-(4-isopropylphenyl)ethyl]-2-hydroxybenzene-sulfonamide hydrochloride]	–	–	–	–	–
–	–	CC(=N)N1CCC(c2ccc(CCNS(=O)(=O)c3cc(C(=N)N)ccc3O)cc2)CC1 [Compound 8, 5-Amidino-2-hydroxy-N-[2-[4-[1-(1-iminoethyl)piperidin-4-yl]phenyl]ethyl]benzenesulfonamide dihydorchloride]	87 nM	0.21 µM	> 100000 nM	0/5	no death was observed
–	–	CC(=N)N1CC[C@H](Oc2ccc(CCNS(=O)(=O)c3cc(C(=N)N)ccc3O)cc2)C1 [Compound 9, (S)-5-Amidino-2-hydroxy-N-[2-[4-[1-(1-iminoethyl)pyrrolidin-3-yloxylphenyl]ethyl]benzenesulfonamidedihydrochloride]	88 nM	0.18 µM	> 100000 nM	–	–
–	–	CC(=N)N1CCC(Oc2ccc(CCNS(=O)(=O)c3cc(C(=N)N)ccc3O)cc2)CC1 [Compound 10, 5-Amidino-2-hvdroxv-N-[2-[4-[1-(1-iminoethyl)piperidin-4-yloxy]phenyl]ethyl]benzenesulfonamide dihydrochloride]	110 nM	0.22 µM	> 100000 nM	–	–
